Measured values: US9809621B2, “Stable peptide-based PACE4 inhibitors” (SOCPRA SCIENCES SANTÉ ET HUMAINES S.E.C., priority 2011, dated 2017)
Values joined by “and” are separate entries in the source; they are usually repeats but may differ in a detail not shown here. Equal values may be shown once. Read-outs that look alike come from different tables or passages of the source. Peptide text beside a SMILES is read from it. * marks the point of attachment. NH(4-amidinobenzyl) = N=C(N)c1ccc(CN*)cc1; X2 = N=C(N)NC/C=C/CN*

Columns and labels:
[1] = test system: DU145 cells; experiment: Stability following incubation with DU145 cells; type: in vitro ADME, human
Description: (§1) Multiple multi-Leu variants described in Table 1 were tested for their stability following incubation with DU145 cells, wherein their cellular stability and plasmatic half-life was measured.
(§2) Consequently, the multi-Leu peptide was further modified by the addition of amino acid analogues and/or with pseudo peptide bounds which increase the protection of the modified peptides from peptidase and protease degradation. Gains in stability were also measured in vitro in tumoral prostatic human cells (DU145). Increase in stability of the variants was also measured in vivo (FIG. 4).

[2] = Stability following incubation with DU145 cells; type: in vitro ADME, human; conditions: human, DU145 cells, Table 1, read-out: Stability (% remaining after 48 h)
Description: as §1, §2

[3] = molecular target: furin (Homo sapiens, UniProt P09958); experiment: Inhibition constant (Ki) for furin; type: biochemical
Chain of furin (P09958 108-794): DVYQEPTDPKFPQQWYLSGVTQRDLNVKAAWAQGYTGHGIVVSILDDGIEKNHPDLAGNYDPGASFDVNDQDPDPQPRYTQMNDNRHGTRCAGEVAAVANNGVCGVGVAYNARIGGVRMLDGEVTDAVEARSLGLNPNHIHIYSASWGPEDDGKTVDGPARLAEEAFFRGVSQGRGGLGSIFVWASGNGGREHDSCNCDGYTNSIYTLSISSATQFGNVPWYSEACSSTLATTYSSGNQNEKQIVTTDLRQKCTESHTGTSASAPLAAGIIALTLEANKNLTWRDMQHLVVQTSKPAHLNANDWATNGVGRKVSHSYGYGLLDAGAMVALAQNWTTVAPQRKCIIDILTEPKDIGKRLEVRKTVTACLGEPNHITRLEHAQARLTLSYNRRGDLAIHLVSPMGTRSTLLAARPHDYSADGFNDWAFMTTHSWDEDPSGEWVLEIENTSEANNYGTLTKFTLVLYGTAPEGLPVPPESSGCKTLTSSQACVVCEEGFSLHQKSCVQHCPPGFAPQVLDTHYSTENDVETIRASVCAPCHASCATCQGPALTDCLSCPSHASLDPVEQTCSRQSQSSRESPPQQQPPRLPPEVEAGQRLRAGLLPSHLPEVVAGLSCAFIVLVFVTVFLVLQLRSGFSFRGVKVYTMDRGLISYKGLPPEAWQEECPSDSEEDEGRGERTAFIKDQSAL

[4] = molecular target: T1, PACE4 (Homo sapiens, UniProt P29122); experiment: Inhibition constant (Ki) for PACE4; type: biochemical
T1 sequence (P29122 150-969): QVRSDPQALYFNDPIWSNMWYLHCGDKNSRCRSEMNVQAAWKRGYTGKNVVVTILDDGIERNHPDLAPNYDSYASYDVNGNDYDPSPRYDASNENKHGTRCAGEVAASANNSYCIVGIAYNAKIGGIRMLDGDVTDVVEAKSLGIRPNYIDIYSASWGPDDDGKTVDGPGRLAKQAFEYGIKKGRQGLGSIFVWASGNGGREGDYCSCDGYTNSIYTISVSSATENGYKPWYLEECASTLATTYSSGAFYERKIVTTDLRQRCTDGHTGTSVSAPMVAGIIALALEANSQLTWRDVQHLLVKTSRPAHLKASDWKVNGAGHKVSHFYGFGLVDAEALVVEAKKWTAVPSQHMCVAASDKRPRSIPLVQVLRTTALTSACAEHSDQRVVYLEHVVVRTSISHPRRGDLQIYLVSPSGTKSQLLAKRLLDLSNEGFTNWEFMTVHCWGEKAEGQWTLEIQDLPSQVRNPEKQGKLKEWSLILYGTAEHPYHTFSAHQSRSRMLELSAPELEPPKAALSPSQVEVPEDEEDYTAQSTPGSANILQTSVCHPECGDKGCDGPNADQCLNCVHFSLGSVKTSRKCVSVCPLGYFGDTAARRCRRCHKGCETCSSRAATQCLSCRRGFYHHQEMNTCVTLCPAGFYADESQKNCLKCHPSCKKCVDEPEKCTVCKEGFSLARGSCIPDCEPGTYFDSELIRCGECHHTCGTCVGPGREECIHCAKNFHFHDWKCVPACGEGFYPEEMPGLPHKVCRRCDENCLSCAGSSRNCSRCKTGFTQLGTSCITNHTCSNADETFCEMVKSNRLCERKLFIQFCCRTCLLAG

[5] = test system: LNCaP cells; conditions: MTT
[6] = test system: LNCaP cells; experiment: Cell cycle analysis (DNA content, flow cytometry) of LNCaP cells; type: cell-based; conditions: for Cell cycle effect (in words): 100 μM or 200 μM, FIG. 11; for Cells in G0/G1 phase / Cells in G2/M phase / Cells in S phase / Cells in Sub-G1 (hypodiploid DNA content, apoptotic): 96 hours
Description: In order to obtain further support for the antiproliferation effects observed, a DNA content analysis was performed on LNCaP treated cells with 100 μM or 200 μM of ML-peptide and the modified analog […] (FIG. 11). […] Following a 200 μM treatment with the Ac-[D-Leu]LLLRVKR-NH2, a 10% increase in the G0/G1 population was observed along with an increased in cells with hypodiploid DNA content (sub-G1) proportions, which represent apoptotic cells.
To perform cell cycle analysis on LNCaP, 4×10^5 cells are seeded in 10 cm culture dish and grown for 24 hours without treatment. Cells are then treated with vehicle (0.1% DMSO) or with 100 μM or 200 μM of peptides Ac-LLLLRVKR-NH2 or Ac-[D-Leu]LLLRVKR-NH2. Treatments are carried out in complete medium (10% FBS) for a period of 96 hours and cell media is changed every 24 hours to offset peptide degradation. Cells are harvested using trypsin, washed once with PBS, resuspended in 0.5 mL PBS and fixed by drop wise addition of 1.5 mL of ice-cold ethanol. After a 30 minutes incubation at room temperature, cells are washed with PBS and DNA staining is performed in 20 mM HEPES pH 7.2, 0.16M NaCl, 1 mM EGTA buffer containing 10 μg/mL of RNAseA and 10 μg/mL of propidium iodine.
Flow cytometry is performed using a FACScan™ cytometer (Becton Dickinson, Mountain View, Calif.) equipped with a 15 mW argon ion laser tuned at 488 nm. A minimum of 10 000 gated events by sample are acquired. Forward and side scatter signals are used to establish the live gate to exclude debris and cell clumps and a second live gate is set using the FL3-A and FL3-W parameters of the doublet discrimination module (DDM), allowing single cell measurements. The percentages of cells in different phases of cell cycle are calculated by ModFit software (Verity Software House, Topsham, Me.).

[7] = test system: DU145 cells; conditions: MTT
[8] = test system: LNCaP tumors; experiment: Intratumoral treatment of LNCaP tumors in immunosuppressed mice; conditions: LNCaP tumors, FIG. 9
[9] = Plasmatic half-life / degradation by plasmatic protease; type: in vitro ADME; conditions: for half-life: plasma
Description: as §1
Stabilisation strategy for multi-Leu variants was also assessed in presence of plasmatic protease. 8 variants protected at their N-terminal leucines were tested in order to establish their level of degradation since it is expected that N-terminal degradation will occur in absence of any modifications other than acetylation. Variants tested with azaβ3-leucine at each individual position and “click” bonds between the different leucines of the N-terminal part of the variants were protected against degradation (see FIG. 3 for modifications).

[10] = Fig. 4
Description: Table printed on a drawing sheet, Fig. 4
The patent's description of the figure: FIG. 4 illustrates plasmatic half-life curves measured for multi-Leu variants tested.
First reader's note: The table also serves as legend for the numbered curves of the adjacent plot; the unit (h) and ± errors stand in the cells, with decimal commas as printed.

[11] = test system: PC3 cells; experiment: MTT proliferation assay in PC3 cells; type: cell-based; conditions: FIG. 1B
[12] = read-out: IC50 (μM) DU145, Table 4, DU145 cells

Compound	Stability (% remaining after 48 h) ([1]; Table 2)	remaining at 48 h [2] [%]	Selectivity index PACE4/furin ([4]; Table 3)	Cell cycle effect (in words) [6]	Cells in G0/G1 phase ([6]; 100 μM) [%]	Cells in G2/M phase ([6]; 100 μM) [%]	Cells in S phase ([6]; 100 μM) [%]	Cells in Sub-G1 (hypodiploid DNA content, apoptotic) ([6]; 100 μM) [%]	Cells in G0/G1 phase ([6]; 200 μM) [%]	Cells in G2/M phase ([6]; 200 μM) [%]	Cells in S phase ([6]; 200 μM) [%]	Cells in Sub-G1 (hypodiploid DNA content, apoptotic) ([6]; 200 μM) [%]	Ki [3] [nM]	IC50 [7, 12] [µM]	half-life ([9]; Table 1) [h]	half-life ([9]; Table 2) [h]	Ki ([4]; Ki for PACE4, Table 1)	other results
CC(=O)N[C@@H](CC(C)C)C(=O)N[C@@H](CC(C)C)C(=O)N[C@@H](CC(C)C)C(=O)N[C@@H](CC(C)C)C(=O)N[C@@H](CCCN=C(N)N)C(=O)N[C@H](C(=O)N[C@@H](CCCCN)C(=O)NCc1ccc(C(=N)N)cc1)C(C)C [ML-[AMBA]^P1, Ac-LLLLRVK-[AMBA]] (Ac-LLLLRVK-{NH(4-amidinobenzyl)})	≃80%	–	–	–	–	–	–	–	–	–	–	–	–	–	–	–	–	Stability (% remaining after 48 h) ([1]; Table 1): ≃80%
CC(=O)N[C@@H](CC(C)C)C(=O)N[C@@H](CC(C)C)C(=O)N[C@@H](CC(C)C)C(=O)N[C@@H](CC(C)C)C(=O)N[C@@H](CCCNC(=N)N)C(=O)N[C@H](C(=O)N[C@@H](CCCCN)C(=O)NC/C=C/CNC(=N)N)C(C)C [ML-[ΔR-CO2]^P1, Ac-LLLLRVK-[ΔR-COO]] (Ac-LLLLRVK-X2)	70%	70	11.4	–	–	–	–	–	–	–	–	–	–	–	–	–	–	Ki ([3]; Table 3, read-out: Ki Furin): 160 nM; Selectivity for PACE4 over furin (time more selective) [4]: 11.4; Ki ([4]; Table 1, read-out: Ki for PACE4): 14 nM
CC(=O)N[C@H](CC(C)C)C(=O)N[C@@H](CC(C)C)C(=O)N[C@@H](CC(C)C)C(=O)N[C@@H](CC(C)C)C(=O)N[C@@H](CCCNC(=N)N)C(=O)N[C@H](C(=O)N[C@@H](CCCCN)C(=O)N[C@@H](CCCNC(=N)N)C(N)=O)C(C)C [[D-Leu]^P8-ML, Ac-[D-Leu]-LLLRVKR-NH2]	–	48	≈20	dose-dependant G0/G1 accumulation and S phase decrease	79.3 ± 1.0	8.9 ± 0.5	11.8 ± 0.5	0.4 ± 0.6	83.4 ± 0.0	8.3 ± 0.1	8.4 ± 0.1	11.8 ± 2.7	516	66 ± 26	~9	6.3	52 nM and 33 nM	IC50 ([5]; read-out: IC50 (μM) LNCaP, Table 4, LNCaP cells): 181 ± 59 µM; Cells with hypodiploid DNA content (sub-G1) proportions (in words) ([6]; 200 μM treatment): increased; Increase in the G0/G1 population ([6]; 200 μM treatment): 10%; Plasmatic concentration of PSA (in words) [8]: decreased; plasmatic half-life ([9]; Table 1): 6.3 h; Ki ([4]; Ki PACE4 (nM), Table 3): 3 nM
Ac-LLLLRVKR-NH2 [6: ML]	–	–	–	–	–	–	–	–	–	–	–	–	–	–	–	–	–	plasmatic half-life [10]: 2,1±0,2h
Ac-LLLLRVKR-NH2 [Multi-Leu (ML), Ac-LLLLRVKR-NH2, reference compound]	56%	56	19	dose-dependant G0/G1 accumulation and S phase decrease	79.7 ± 0.4	8.4 ± 0.6	11.9 ± 0.2	1.0 ± 0.0	81.5 ± 0.0	9.2 ± 0.1	9.3 ± 0.1	4.8 ± 1.7	722	187 ± 44	2.1 ± 0.2	2.1 ± 0.2	38 nM	Inhibition of PC3 cell proliferation (in words) [11]: very poor inhibition; IC50 ([5]; read-out: IC50 cellular proliferation LNCaP, FIG. 1B/1D): 180 ± 57 µM; IC50 ([7]; read-out: IC50 cellular proliferation DU145, FIG. 1B/1C): 103 ± 29 µM
